{"source": "paper PMC10999112", "about": "(Angewandte Chemie (International ed. in English), 2023)", "biological_target": "recombinant WT-NSUN2 (Homo sapiens, UniProt Q08J23)", "sequence (Q08J23 whole entry)": "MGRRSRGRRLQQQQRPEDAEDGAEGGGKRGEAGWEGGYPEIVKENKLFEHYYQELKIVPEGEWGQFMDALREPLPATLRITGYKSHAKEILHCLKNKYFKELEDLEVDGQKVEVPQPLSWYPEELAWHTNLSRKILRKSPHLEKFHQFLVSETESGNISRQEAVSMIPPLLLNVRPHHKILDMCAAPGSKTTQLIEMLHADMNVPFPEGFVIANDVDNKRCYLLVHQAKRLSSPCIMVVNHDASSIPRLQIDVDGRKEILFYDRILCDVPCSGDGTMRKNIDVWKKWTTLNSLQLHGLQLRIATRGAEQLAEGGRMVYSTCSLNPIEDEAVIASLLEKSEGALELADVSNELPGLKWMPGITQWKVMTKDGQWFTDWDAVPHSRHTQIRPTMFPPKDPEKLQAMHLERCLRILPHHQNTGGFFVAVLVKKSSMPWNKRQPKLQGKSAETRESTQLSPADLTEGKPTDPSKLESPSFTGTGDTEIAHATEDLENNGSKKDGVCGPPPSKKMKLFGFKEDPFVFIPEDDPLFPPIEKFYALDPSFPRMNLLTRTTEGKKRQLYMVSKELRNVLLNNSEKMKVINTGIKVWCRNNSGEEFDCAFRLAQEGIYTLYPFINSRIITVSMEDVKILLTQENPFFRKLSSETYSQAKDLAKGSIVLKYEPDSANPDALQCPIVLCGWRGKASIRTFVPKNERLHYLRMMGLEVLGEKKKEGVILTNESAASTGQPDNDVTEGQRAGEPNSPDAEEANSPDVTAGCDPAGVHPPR", "assay": "Gel-ABPP in lysate of WT-NSUN2-expressing HEK293T cells", "format": "binding", "conditions": "recombinant WT-NSUN2 in HEK293T cell lysates"}
{"compound": "Nc1ncnc2c1ncn2[C@@H]1O[C@H](CSCC[C@H](N)C(=O)O)[C@@H](O)[C@H]1O", "note": "[SAH, S-adenosylhomocysteine]", "values": [{"measurement": "blockade of MY-11B reactivity with NSUN2", "result": "blocked in a concentration-dependent manner"}]}
